Key:
[1] = target: T1, KRas-mediated phosphorylation of ERK in MKN1 cells (Homo sapiens, UniProt P01116); experiment: Inhibition of KRas-mediated phosphorylation of ERK (HTRF), MKN1 cells; assay type: cell-based; conditions: MKN1 cells (KRas WT); HTRF pERK; 3 h incubation
T1 construct: pERK HTRF read-out
Protocol: Inhibition of KRas Phosphorylation of ERK (HTRF) by Exemplary Compounds of Formula (Ia) or (Ib)
Cisbio HTRF Advanced pERK Assay Catalog #64AERPEH • Cells: MKN1, PSN1 • Procedure: • 1. Day 1: Seed 6,000 cells/well −25 μl/well in 384-well white solid bottom plate; RPM1_10% FBS. Incubate overnight at 37 °C/5% CO2. • 2.

KRas G12C = target: T2, KRas G12C (Homo sapiens, UniProt P01116, G12C); experiment: KRas binding assay, TR-FRET displacement of Cy5 labelled tracer; conditions: 60-minute incubation at room temperature, 1% DMSO, pH 7.5
T2 construct: Biotinylated KRas (corresponding to amino acids 1-169, produced at Accelegan Inc.); biotin (biotinylated); purchased Accelegan Inc
T2 sequence (P01116 1-169 isoform P01116-2 G12C): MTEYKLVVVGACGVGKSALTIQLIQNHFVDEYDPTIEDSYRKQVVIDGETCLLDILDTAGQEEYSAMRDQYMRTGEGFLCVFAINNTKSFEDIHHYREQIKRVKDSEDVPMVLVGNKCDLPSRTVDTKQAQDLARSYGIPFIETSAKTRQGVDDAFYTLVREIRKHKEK
How it was run: (§1)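 Truncated KRas (1-169), biotinylated, Tb-streptavidin donor; one-hour room-temperature incubation; IC50 by four-parameter curve fitting.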

KRas G12S = target: T3, KRas G12S (Homo sapiens, UniProt P01116, G12S); experiment: as above; conditions: 60-minute incubation at room temperature, 1% DMSO, pH 7.5
T3 construct: Biotinylated KRas (corresponding to amino acids 1-169, produced at Accelegan Inc.); biotin (biotinylated); purchased Accelegan Inc
T3 sequence (P01116 1-169 isoform P01116-2 G12S): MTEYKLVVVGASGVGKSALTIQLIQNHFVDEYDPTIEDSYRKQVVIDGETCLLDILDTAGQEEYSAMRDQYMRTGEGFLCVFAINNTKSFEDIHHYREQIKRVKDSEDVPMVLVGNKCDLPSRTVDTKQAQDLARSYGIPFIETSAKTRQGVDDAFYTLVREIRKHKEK
How it was run: as §1

KRas WT = target: T4, KRas WT (Homo sapiens, UniProt P01116); experiment: as above; conditions: 60-minute incubation at room temperature, 1% DMSO, pH 7.5
T4 construct: Biotinylated KRas (corresponding to amino acids 1-169, produced at Accelegan Inc.); biotin (biotinylated); purchased Accelegan Inc
T4 sequence (P01116 1-169 isoform P01116-2): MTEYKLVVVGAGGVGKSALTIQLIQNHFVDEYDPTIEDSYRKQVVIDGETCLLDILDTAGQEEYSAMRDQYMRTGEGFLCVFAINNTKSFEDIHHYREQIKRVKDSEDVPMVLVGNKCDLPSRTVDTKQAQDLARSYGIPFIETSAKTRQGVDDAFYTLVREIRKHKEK
How it was run: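 Assay buffer was HEPES (50 mM, pH 7.5) with MgCl2 (5 mM), DTT (1 mM) and Tween-20 (0.005%). Biotinylated KRas spanning residues 1-169 met tracer, terbium streptavidin and compound (1% DMSO, final) for 60 minutes at ambient temperature before reading. POC values were fitted for IC50.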

[2] = target: T5, KRas-mediated phosphorylation of ERK in H358 cells (Homo sapiens, UniProt P01116, G12C); experiment: Inhibition of KRas-mediated phosphorylation of ERK (HTRF), H358 cells; assay type: cell-based; conditions: HTRF pERK, 3 h incubation
T5 construct: pERK HTRF read-out
T5 sequence (P01116 1-188 isoform P01116-2 G12C): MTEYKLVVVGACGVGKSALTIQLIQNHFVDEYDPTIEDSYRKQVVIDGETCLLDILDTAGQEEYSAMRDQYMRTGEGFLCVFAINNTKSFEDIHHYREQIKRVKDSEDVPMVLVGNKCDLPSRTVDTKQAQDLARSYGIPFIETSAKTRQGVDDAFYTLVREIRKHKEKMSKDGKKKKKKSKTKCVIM

[3] = target: T6, KRas-mediated phosphorylation of ERK in A549 cells (Homo sapiens, UniProt P01116, G12S); experiment: Inhibition of KRas-mediated phosphorylation of ERK (HTRF), A549 cells; assay type: cell-based; conditions: HTRF pERK, 3 h incubation
T6 construct: pERK HTRF read-out
T6 sequence (P01116 1-188 isoform P01116-2 G12S): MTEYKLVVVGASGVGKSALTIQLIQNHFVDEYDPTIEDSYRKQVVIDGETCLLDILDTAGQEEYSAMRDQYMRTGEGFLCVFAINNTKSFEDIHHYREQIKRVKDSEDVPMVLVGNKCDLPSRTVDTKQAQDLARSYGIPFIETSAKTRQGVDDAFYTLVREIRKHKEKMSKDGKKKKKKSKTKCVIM

T1 sequence (P01116 1-188 isoform P01116-2): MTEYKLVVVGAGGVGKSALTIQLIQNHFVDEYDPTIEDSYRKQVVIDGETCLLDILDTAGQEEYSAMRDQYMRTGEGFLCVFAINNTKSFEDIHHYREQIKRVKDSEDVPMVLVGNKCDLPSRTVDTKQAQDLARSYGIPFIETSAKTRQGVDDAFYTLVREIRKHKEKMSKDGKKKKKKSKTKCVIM

| Compound | IC50 [1] | IC50 (KRas G12C) | IC50 (KRas G12S) | IC50 (KRas WT) | IC50 [2] | IC50 [3] |
| --- | --- | --- | --- | --- | --- | --- |
| CC(=O)N(C)C(=O)[C@H]1C[C@@H]2CN(c3nc(OC[C@@]45CCCN4C[C@H](F)C5)nc4c(F)c(-c5ccc(F)c6sc(N)c(C#N)c56)c(Cl)cc34)C[C@@H]2C1 (atropisomer, axis not shown; (aR)) [Example 236, (3aR,5S,6aS)-N-acetyl-2-((S)-7-(2-amino-3-cyano-7-fluorobenzo[b]thiophen-4-yl)-6-chloro-8-fluoro-2-(((2R,7aS)-2-fluorotetrahydro-1H-pyrrolizin-7a(5H)-yl)methoxy)quinazolin-4-yl)-N-methyloctahydrocyclopenta[c]pyrrole-5-carboxamide] | 41 nM | 7 nM | 15 nM | 10 nM | 108 nM | 104 nM |
| Cc1ccn(C(=O)[C@H]2CCCN(c3nc(OC[C@@]45CCCN4C[C@H](F)C5)nc4c(F)c(-c5ccc(F)c6sc(N)c(C#N)c56)c(Cl)cc34)CC2)n1 (atropisomer, axis not shown; (aS)) [Example 170, 2-amino-4-((S)-6-chloro-8-fluoro-2-(((2R,7aS)-2-fluorotetrahydro-1H-pyrrolizin-7a(5H)-yl)methoxy)-4-((S)-4-(3-methyl-1H-pyrazole-1-carbonyl)azepan-1-yl)quinazolin-7-yl)-7-fluorobenzo[b]thiophene-3-carbonitrile] | 53 nM | 2 nM | 2 nM | 9 nM | 3 nM | 2 nM |
| CC(=O)N(C)C(=O)[C@H]1CCCN(c2nc(OC[C@@]34CCCN3C[C@H](F)C4)nc3c(F)c(-c4ccc(F)c5sc(N)c(C#N)c45)c(Cl)cc23)CC1 (atropisomer, axis not shown; (aS)) [Example 256, (S)—N-acetyl-1-((S)-7-(2-amino-3-cyano-7-fluorobenzo[b]thiophen-4-yl)-6-chloro-8-fluoro-2-(((2R,7aS)-2-fluorotetrahydro-1H-pyrrolizin-7a(5H)-yl)methoxy)quinazolin-4-yl)-N-methylazepane-4-carboxamide] | 19 nM | 5 nM | 2 nM | 4 nM | 8 nM | 3 nM |
| CC(=O)N(C)C(=O)CCCN(C)c1nc(OC[C@@]23CCCN2C[C@H](F)C3)nc2c(F)c(-c3ccc(F)c4sc(N)c(C#N)c34)c(Cl)cc12 (atropisomer, axis not shown; (aS)) [Example 260, N-acetyl-4-(((S)-7-(2-amino-3-cyano-7-fluorobenzo[b]thiophen-4-yl)-6-chloro-8-fluoro-2-(((2R,7aS)-2-fluorotetrahydro-1H-pyrrolizin-7a(5H)-yl)methoxy)quinazolin-4-yl)(methyl)amino)-N-methylbutanamide] | 36 nM | < 2 nM | < 2 nM | 4 nM | 18 nM | 6 nM |
| CCc1c(F)ccc2cc(O)cc(-c3ncc4c(N5CCN(C(=O)n6ccc(C)n6)C6(CC6)C5)nc(OC[C@@]56CCCN5C[C@H](F)C6)nc4c3F)c12 (single isomer, unassigned) [Example 78] | 90 nM | 128 nM | 146 nM | 25 nM | 1250 nM | 3820 nM |
| CCc1c(F)ccc2cc(O)cc(-c3ncc4c(N5CCN(C(=O)n6nccn6)CC5)nc(OC[C@@]56CCCN5C[C@H](F)C6)nc4c3F)c12 (single isomer, unassigned) [Example 152] | 251 nM | 73 nM | 84 nM | 39 nM | 83 nM | 2180 nM |
| CN(CCN(C)c1nc(OC[C@@]23CCCN2C[C@H](F)C3)nc2c(F)c(-c3ccc(F)c4sc(N)c(C#N)c34)c(Cl)cc12)C(=O)n1nccn1 (single isomer, unassigned) [Example 202] | 142 nM | < 2 nM | 2 nM | 4 nM | 23 nM | 1480 nM |
| CN(CCN(C)c1nc(OC[C@@]23CCCN2C[C@H](F)C3)nc2c(F)c(-c3ccc(F)c4sc(N)c(C#N)c34)c(Cl)cc12)C(=O)n1ccnn1 (single isomer, unassigned) [Example 203] | 101 nM | < 2 nM | 3 nM | 4 nM | 1 nM | 195 nM |
| CCc1c(F)ccc2cc(O)cc(-c3ncc4c(N(C)CCN(C)C(=O)n5nccn5)nc(OC[C@@]56CCCN5C[C@H](F)C6)nc4c3F)c12 (single isomer, unassigned) [Example 207] | 1390 nM | 22 nM | 66 nM | 238 nM | 34 nM | 6650 nM |
| CCc1c(F)ccc2cc(O)cc(-c3ncc4c(N(C)CCN(C)C(=O)n5ccnn5)nc(OC[C@@]56CCCN5C[C@H](F)C6)nc4c3F)c12 (single isomer, unassigned) [Example 208] | 854 nM | 4 nM | 74 nM | 171 nM | 4 nM | 3980 nM |
| CCc1c(F)ccc2cc(O)cc(-c3ncc4c(N5CCC(C(=O)n6ccc(C)n6)CC5)nc(OC[C@@]56CCCN5C[C@H](F)C6)nc4c3F)c12 [Example 1, (1-(7-(8-ethyl-7-fluoro-3-hydroxynaphthalen-1-yl)-8-fluoro-2-(((2R,7aS)-2-fluorotetrahydro-1H-pyrrolizin-7a(5H)-yl)methoxy)pyrido[4,3-d]pyrimidin-4-yl)piperidin-4-yl)(3-methyl-1H-pyrazol-1-yl)methanone] | 4000 nM | 77 nM | 36 nM | 63 nM | 3720 nM | 109 nM |
| CCc1c(F)ccc2cc(O)cc(-c3ncc4c(N5CCC(C(=O)n6cccn6)CC5)nc(OC[C@@]56CCCN5C[C@H](F)C6)nc4c3F)c12 [Example 4, (1-(7-(8-ethyl-7-fluoro-3-hydroxynaphthalen-1-yl)-8-fluoro-2-(((2R,7aS)-2-fluorotetrahydro-1H-pyrrolizin-7a(5H)-yl)methoxy)pyrido[4,3-d]pyrimidin-4-yl)piperidin-4-yl)(1H-pyrazol-1-yl)methanone] | 2040 nM | 22 nM | 9 nM | 51 nM | 5440 nM | 69 nM |
| CCc1c(F)ccc2cc(O)cc(-c3ncc4c(N5CCC(C(=O)OC)CC5)nc(OC[C@@]56CCCN5C[C@H](F)C6)nc4c3F)c12 [Example 16, methyl 1-(7-(8-ethyl-7-fluoro-3-hydroxynaphthalen-1-yl)-8-fluoro-2-(((2R,7aS)-2-fluorotetrahydro-1H-pyrrolizin-7a(5H)-yl)methoxy)pyrido[4,3-d]pyrimidin-4-yl)piperidine-4-carboxylate] | 70 nM | 54 nM | 44 nM | 23 nM | 428 nM | 337 nM |
| CCc1c(F)ccc2cc(O)cc(-c3ncc4c(N5CC[C@H]6[C@@H](C5)[C@H]6C(=O)n5ccc(C)n5)nc(OC[C@@]56CCCN5C[C@H](F)C6)nc4c3F)c12 [Example 156, ((1R,6S,7S)-3-(7-(8-ethyl-7-fluoro-3-hydroxynaphthalen-1-yl)-8-fluoro-2-(((2R,7aS)-2-fluorotetrahydro-1H-pyrrolizin-7a(5H)-yl)methoxy)pyrido[4,3-d]pyrimidin-4-yl)-3-azabicyclo[4.1.0]heptan-7-yl)(3-methyl-1H-pyrazol-1-yl)methanone] | 2090 nM | 89 nM | 15 nM |  | 2350 nM | 38 nM |
